Paper PMC6437697 (Journal of Medicinal Chemistry, 2019)

Key:
Assay in all cases: KINOMEscan
Assay type in all cases: binding
Settings in all cases: read-out: % control activity remaining
[1] = biological target: T1, MEK2 (Homo sapiens, UniProt P36507)
T1 construct: purchased Eurofins DiscoverX KINOMEscan

[2] = biological target: T2, IKK-alpha (Homo sapiens, UniProt O15111)
T2 construct: purchased Eurofins DiscoverX KINOMEscan
T2 sequence (O15111 1-745): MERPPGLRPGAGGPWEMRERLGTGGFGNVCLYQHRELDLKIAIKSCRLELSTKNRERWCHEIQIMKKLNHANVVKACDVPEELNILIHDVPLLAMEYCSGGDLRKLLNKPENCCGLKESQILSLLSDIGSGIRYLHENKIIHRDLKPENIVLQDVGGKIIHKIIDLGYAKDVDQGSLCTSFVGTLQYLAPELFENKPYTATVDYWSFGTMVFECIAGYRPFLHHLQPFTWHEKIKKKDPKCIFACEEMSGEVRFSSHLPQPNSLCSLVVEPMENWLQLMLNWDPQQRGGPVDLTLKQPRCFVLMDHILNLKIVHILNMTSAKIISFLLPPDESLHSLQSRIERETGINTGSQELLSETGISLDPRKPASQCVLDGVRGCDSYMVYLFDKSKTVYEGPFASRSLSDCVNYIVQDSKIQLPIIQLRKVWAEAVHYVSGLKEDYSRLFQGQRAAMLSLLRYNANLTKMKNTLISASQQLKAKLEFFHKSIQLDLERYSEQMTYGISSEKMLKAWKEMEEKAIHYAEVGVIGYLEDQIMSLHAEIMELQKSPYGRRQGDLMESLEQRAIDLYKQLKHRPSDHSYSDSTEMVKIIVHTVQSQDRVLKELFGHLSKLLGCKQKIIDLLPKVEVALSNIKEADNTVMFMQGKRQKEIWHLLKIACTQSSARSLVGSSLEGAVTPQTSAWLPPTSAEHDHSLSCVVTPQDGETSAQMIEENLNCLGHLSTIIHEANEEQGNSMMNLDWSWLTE

[3] = biological target: T3, VEGFR2 (Homo sapiens, UniProt P35968)
T3 construct: purchased Eurofins DiscoverX KINOMEscan
T3 sequence (P35968 20-1356): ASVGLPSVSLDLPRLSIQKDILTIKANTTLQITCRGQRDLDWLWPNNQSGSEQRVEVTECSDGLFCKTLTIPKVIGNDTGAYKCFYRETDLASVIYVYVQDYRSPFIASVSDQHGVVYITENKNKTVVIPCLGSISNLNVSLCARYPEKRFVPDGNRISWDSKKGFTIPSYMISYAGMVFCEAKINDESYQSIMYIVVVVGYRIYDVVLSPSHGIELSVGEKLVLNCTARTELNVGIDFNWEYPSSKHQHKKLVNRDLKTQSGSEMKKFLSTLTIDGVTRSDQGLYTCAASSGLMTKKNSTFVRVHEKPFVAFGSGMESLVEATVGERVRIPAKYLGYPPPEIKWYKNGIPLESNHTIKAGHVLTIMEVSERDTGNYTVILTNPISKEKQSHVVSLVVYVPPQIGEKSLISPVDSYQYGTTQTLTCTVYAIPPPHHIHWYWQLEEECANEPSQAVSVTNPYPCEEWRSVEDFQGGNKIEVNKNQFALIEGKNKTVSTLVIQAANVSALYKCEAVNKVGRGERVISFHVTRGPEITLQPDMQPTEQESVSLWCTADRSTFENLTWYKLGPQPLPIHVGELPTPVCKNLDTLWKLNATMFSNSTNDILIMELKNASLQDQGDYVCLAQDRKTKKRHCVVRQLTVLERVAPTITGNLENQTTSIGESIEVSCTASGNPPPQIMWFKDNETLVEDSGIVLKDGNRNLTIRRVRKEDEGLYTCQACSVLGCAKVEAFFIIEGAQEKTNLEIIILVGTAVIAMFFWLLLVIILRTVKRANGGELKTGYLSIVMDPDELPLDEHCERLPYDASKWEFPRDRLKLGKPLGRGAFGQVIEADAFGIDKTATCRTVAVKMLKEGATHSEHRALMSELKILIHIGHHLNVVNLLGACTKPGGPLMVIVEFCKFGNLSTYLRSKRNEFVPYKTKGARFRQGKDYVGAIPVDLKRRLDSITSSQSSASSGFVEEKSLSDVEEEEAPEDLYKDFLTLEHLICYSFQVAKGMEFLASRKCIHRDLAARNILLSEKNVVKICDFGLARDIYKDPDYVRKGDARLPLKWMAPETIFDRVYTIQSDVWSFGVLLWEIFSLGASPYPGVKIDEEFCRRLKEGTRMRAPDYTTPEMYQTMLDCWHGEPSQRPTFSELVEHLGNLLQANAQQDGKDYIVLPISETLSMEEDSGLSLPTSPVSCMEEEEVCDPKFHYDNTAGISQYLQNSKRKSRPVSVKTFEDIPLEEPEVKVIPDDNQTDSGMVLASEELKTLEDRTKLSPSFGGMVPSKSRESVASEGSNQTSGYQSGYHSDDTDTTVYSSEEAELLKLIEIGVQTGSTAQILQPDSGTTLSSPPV

[4] = biological target: T4, JNK1 (Homo sapiens, UniProt P45983)
T4 construct: purchased Eurofins DiscoverX KINOMEscan
T4 sequence (P45983 whole entry): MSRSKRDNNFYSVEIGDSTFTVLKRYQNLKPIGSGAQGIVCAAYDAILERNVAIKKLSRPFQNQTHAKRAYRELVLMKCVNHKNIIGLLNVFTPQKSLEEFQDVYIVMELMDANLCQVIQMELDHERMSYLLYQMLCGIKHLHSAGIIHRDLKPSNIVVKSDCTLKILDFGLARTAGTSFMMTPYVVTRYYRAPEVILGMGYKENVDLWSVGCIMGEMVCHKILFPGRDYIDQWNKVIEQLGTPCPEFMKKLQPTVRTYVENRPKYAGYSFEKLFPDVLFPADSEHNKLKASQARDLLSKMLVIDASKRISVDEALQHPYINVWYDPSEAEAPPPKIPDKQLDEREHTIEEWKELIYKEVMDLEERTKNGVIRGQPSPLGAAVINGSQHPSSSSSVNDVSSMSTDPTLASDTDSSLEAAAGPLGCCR

[5] = biological target: T5, MERTK (Homo sapiens, UniProt Q12866)
T5 construct: purchased Eurofins DiscoverX KINOMEscan
T5 sequence (Q12866 21-999): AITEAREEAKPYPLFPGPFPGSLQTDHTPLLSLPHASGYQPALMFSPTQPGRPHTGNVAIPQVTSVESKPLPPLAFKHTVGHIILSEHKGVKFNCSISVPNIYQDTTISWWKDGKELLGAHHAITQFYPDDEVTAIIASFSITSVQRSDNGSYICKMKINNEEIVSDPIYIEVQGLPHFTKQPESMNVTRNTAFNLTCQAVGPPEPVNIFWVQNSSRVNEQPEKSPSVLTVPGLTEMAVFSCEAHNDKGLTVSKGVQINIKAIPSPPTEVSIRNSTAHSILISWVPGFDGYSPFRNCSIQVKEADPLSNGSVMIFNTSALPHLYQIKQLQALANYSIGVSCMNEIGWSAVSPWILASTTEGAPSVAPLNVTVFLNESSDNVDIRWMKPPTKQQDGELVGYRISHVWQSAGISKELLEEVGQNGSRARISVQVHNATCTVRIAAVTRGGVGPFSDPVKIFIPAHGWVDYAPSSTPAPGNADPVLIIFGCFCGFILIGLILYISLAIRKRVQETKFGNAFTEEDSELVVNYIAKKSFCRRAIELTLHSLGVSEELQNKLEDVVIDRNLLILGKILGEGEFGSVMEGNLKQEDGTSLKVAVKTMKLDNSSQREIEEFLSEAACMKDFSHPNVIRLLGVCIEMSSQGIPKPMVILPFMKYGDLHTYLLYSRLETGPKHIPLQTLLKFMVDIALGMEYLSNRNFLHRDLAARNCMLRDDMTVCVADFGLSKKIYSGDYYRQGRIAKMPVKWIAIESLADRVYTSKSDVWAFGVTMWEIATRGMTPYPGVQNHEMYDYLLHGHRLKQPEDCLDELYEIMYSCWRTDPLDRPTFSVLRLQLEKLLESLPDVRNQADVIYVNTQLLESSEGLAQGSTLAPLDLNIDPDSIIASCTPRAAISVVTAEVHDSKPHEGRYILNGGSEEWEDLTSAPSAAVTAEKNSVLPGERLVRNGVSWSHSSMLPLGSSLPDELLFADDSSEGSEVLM

[6] = biological target: T6, PAK2 (Homo sapiens, UniProt Q13177)
T6 construct: purchased Eurofins DiscoverX KINOMEscan
T6 sequence (Q13177 whole entry): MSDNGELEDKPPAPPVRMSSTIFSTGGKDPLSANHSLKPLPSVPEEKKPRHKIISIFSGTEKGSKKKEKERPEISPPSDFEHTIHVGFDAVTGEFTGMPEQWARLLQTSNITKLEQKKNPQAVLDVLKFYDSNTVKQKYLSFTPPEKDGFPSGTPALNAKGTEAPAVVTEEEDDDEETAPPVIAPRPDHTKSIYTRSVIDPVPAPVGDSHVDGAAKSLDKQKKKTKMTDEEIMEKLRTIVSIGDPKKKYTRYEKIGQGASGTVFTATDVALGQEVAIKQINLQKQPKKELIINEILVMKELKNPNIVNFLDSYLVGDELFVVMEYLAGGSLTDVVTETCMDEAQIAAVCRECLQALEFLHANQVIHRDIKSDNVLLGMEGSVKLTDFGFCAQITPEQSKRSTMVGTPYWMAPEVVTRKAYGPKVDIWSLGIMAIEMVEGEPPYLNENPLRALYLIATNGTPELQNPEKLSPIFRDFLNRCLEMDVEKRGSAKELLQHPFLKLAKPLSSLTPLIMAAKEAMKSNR

[7] = biological target: T7, MARK3 (Homo sapiens, UniProt P27448)
T7 construct: purchased Eurofins DiscoverX KINOMEscan
T7 sequence (P27448 whole entry): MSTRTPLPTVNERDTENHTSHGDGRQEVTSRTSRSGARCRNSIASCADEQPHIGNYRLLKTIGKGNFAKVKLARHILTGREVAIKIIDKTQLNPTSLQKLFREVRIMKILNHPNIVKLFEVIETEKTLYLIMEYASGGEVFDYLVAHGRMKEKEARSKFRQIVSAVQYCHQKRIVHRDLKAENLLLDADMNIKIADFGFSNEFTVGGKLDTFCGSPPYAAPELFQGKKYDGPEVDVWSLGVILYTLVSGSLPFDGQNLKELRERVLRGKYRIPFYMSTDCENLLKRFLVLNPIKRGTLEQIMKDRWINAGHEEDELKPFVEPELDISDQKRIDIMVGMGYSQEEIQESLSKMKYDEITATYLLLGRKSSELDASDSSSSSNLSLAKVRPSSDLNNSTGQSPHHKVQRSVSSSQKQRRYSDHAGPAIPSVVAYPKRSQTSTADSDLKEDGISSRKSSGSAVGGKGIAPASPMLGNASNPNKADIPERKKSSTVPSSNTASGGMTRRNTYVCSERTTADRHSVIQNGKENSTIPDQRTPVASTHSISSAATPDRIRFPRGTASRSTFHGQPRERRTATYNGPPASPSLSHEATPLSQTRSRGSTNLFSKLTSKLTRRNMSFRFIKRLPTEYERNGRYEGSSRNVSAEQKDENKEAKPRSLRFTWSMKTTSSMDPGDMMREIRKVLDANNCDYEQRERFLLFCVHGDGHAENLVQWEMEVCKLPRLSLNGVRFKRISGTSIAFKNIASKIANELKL

[8] = biological target: T8, ULK2 (Homo sapiens, UniProt Q8IYT8)
T8 construct: purchased Eurofins DiscoverX KINOMEscan
T8 sequence (Q8IYT8 1-1036): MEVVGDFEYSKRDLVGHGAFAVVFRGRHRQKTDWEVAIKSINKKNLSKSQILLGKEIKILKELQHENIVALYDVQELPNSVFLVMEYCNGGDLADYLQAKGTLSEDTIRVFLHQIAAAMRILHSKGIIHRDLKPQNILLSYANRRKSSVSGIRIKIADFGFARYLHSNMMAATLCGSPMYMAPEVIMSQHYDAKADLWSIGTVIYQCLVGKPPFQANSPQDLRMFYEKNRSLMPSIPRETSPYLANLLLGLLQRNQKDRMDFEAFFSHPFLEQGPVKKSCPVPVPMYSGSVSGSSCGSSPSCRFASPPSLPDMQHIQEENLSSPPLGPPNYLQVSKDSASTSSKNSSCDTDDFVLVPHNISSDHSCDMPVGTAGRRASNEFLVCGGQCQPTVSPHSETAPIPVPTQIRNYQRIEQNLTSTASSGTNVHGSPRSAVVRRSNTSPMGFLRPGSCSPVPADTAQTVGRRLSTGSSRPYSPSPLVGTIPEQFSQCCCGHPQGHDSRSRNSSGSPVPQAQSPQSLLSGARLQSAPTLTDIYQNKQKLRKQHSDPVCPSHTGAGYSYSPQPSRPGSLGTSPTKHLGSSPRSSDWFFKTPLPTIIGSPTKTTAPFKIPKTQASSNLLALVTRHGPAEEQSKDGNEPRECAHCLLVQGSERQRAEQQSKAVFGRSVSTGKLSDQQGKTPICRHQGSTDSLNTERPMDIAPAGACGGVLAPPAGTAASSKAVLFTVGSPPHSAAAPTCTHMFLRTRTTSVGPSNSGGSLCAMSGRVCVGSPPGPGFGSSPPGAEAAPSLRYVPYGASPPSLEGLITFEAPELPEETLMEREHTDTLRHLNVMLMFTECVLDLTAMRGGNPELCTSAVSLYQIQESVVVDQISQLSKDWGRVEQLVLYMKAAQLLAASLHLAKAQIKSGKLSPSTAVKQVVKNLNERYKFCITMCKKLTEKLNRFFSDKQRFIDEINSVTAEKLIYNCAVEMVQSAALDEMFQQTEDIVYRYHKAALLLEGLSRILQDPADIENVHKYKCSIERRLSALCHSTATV

T1 sequence (P36507 whole entry): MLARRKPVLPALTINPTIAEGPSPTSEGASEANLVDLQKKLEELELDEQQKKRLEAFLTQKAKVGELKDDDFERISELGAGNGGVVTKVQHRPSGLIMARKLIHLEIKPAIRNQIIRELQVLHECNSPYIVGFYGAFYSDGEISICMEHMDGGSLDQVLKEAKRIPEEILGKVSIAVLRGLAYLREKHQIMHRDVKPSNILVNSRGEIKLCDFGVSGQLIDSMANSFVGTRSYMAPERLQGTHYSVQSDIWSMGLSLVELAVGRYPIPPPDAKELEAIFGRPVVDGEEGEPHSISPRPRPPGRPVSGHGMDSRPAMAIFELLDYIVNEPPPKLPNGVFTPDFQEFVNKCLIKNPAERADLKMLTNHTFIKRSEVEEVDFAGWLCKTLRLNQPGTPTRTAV

| SMILES | remaining binding at 1 µM [1] | remaining binding at 1 µM [2] | remaining binding at 1 µM [3] | remaining binding at 1 µM [4] | remaining binding at 1 µM [5] | remaining binding at 1 µM [6] | remaining binding at 1 µM [7] | remaining binding at 1 µM [8] |
| --- | --- | --- | --- | --- | --- | --- | --- | --- |
| Clc1cc(NCC2CC2)c2ncc(-c3ccc4[nH]ncc4c3)n2n1 [compound 2, 6-Chloro-N-(cyclopropylmethyl)-3-(1H-indazol-5-yl)imidazo[1,2-b]pyridazin-8-amine] | 92% | 76% | 79% | 91% | 100% | 71% | 100% | 98% |
| O=C(CN1CCOCC1)N[C@H]1CC[C@H](Nc2cc(Cl)nn3c(-c4ccc5[nH]ncc5c4)cnc23)CC1 [compound 26] | 89% | 100% | 35% | 83% | 70% | 76% | 99% | 94% |
| CN1CCC(CNc2cc(Cl)nn3c(-c4cc5nc(Nc6ccccc6)[nH]c5cc4F)cnc23)CC1 [compound 31, 6-Chloro-3-(6-fluoro-2-(phenylamino)-1H-benzo[d]imidazol-5-yl)-N-((1-methylpiperidin-4-yl)methyl)imidazo[1,2-b]pyridazin-8-amine] | 80% | 90% | 71% | 67% | 82% | 91% | 60% | 83% |
